Values after ≈ are worked out from the molar mass of the structure shown. Like-named read-outs stand apart in the source and are kept apart here.
How the values were obtained:
M. pneumoniae = assay: microbe, parasite or virus in culture; format: cell-based; conditions: Mycoplasmoides pneumoniae
S. pneumoniae [1] = format: cell-based
S. pneumoniae [2] = assay: mouse subcutaneous abscess model; format: in vivo; conditions: for average log10 CFU/gram of abscess: S. pneumoniae 1629, 10 mg/Kg PO
Description: Example. Efficacy was evaluated in several infection models. […] PD50s were determined 24 hr post infection. CEM-101 was further evaluated in a subcutaneous abscess mouse model against S. pneumoniae. CD-1 female mice were infected via SC injection of bacteria mixed with cyclodextran beads. Two hr post infection, mice received a single oral dose of CEM 101 or control agents. At 48 hr post dose, mice were euthanized, abscesses aseptically removed and bacteria enumerated. CFU per abscess was determined and compared to the untreated control. […] 24 hr post treatment, the thighs were processed and CFU/gram of thigh determined.
Example. Mouse Subcutaneous Abscess. Bacteria were prepared from an overnight plate culture by re-suspending in saline and adjusting the suspension to a 0.1 OD at 625 nm of a 1:10 dilution. The adjusted bacterial suspension was mixed 1:2 with cyclodextran beads prepared as per package instructions. The right flanks of the mice were shaven and injected subcutaneously with 0.2 ml of the bacterial inoculum. Two hours post infection mice were treated via oral gavage with either test article or control drug. 48 hours post infection, mice were euthanized, abscesses aseptically removed, homogenized, serially diluted and plated on bacterial growth agar. After overnight incubation, colonies were counted and CFUs/gram of abscess were determined.
Example. The ability of CEM101 to reduce the microbial load in abscess infection model was also assessed against S. pneumoniae isolates.

S. pneumoniae [3] = assay: MIC of the strains of the mouse systemic infection model; format: cell-based; conditions: Streptococcus pneumoniae
U. urealyticum = assay: MIC testing in 10B broth (colour change); format: cell-based; conditions: U. urealyticum (10 isolates)
[4] = tested on: intraphagocytic L. pneumophila ATCC 33153 (THP-1); format: cell-based; conditions: L. pneumophila ATCC 33153, 48 h
M. catarrhalis = assay: microbe, parasite or virus in culture; format: cell-based
U. parvum = assay: MIC testing in 10B broth (colour change); format: cell-based, Ureaplasma parvum; conditions: U. parvum (10 isolates)
S. aureus = assay: mouse systemic infection model (PD50); format: in vivo
S. pneumoniae [5] = assay: neutropenic mouse thigh infection; format: in vivo; conditions: PO
S. pyogenes 3029 = assay: Intraperitoneal (IP) mouse infection model (ED50); format: in vivo; conditions: Streptococcus pyogenes, MAC-R S. pyogenes 3029
S. pyogenes = format: cell-based
S. pneumoniae [6] = assay: mouse systemic infection model (PD50); format: in vivo
[7] = S. pneumoniae (macrolide susceptible)

## CC[C@H]1OC(=O)[C@@](C)(F)C(=O)[C@H](C)[C@@H](OC2OC(C)CC(N(C)C)C2O)[C@@](C)(OC)C[C@@H](C)C(=O)[C@H](C)[C@H]2N(CCCCn3cc(-c4cccc(N)c4)nn3)C(=O)O[C@]12C (some centres unmarked) [CEM-101, 11-N-4-(3-aminophenyl)-[1,2,3]triazol-1-yl]-butyl}-5-desosaminyl-3-oxo-2-fluoro-erythronolide A,-11,12-cyclic carbamate]
M. pneumoniae
  MIC50: 0.032 ng/mL (≈ 0.0379 nM)
S. pneumoniae [1]; strain 24 Macrolide-R [erm(B)], 2 × MIC
  single step mutation frequency: 1.8 × 10^−7
S. pneumoniae [1]; strain 24 Macrolide-R [erm(B)], 4 × MIC
  single step mutation frequency: <5.0 × 10^−9
S. pneumoniae [1]; strain 24 Macrolide-R [erm(B)], 8 × MIC
  single step mutation frequency: <5.0 × 10^−9
S. pneumoniae [1]; strain 1076 Macrolide-R [erm(B)&mef(A)], 2 × MIC
  single step mutation frequency: <2.5 × 10^−8
S. pneumoniae [1]; strain 1076 Macrolide-R [erm(B)&mef(A)], 4 × MIC
  single step mutation frequency: 7.5 × 10^−9
S. pneumoniae [1]; strain 1076 Macrolide-R [erm(B)&mef(A)], 8 × MIC
  single step mutation frequency: 2.0 × 10^−9
S. pneumoniae [1]; strain 1077 Macrolide-S, 2 × MIC
  single step mutation frequency: <9.1 × 10^−9
S. pneumoniae [1]; strain 1077 Macrolide-S, 4 × MIC
  single step mutation frequency: <9.1 × 10^−9
S. pneumoniae [1]; strain 1077 Macrolide-S, 8 × MIC
  single step mutation frequency: <9.1 × 10^−9
S. pneumoniae [1]; strain 1635 Macrolide-R [erm(A)], 2 × MIC
  single step mutation frequency: 1.6 × 10^−8
S. pneumoniae [1]; strain 1635 Macrolide-R [erm(A)], 4 × MIC
  single step mutation frequency: <2.0 × 10^−10
S. pneumoniae [1]; strain 1635 Macrolide-R [erm(A)], 8 × MIC
  single step mutation frequency: <2.0 × 10^−10
S. pneumoniae [1]; strain 2686 Macrolide-R [L4 mutation], 2 × MIC
  single step mutation frequency: <2.5 × 10^−9
S. pneumoniae [1]; strain 2686 Macrolide-R [L4 mutation], 4 × MIC
  single step mutation frequency: <2.5 × 10^−9
S. pneumoniae [1]; strain 2686 Macrolide-R [L4 mutation], 8 × MIC
  single step mutation frequency: <2.5 × 10^−9
S. pneumoniae [1]; strain 3009 Macrolide-R [23S rRNA mutation], 2 × MIC
  single step mutation frequency: <5.9 × 10^−9
S. pneumoniae [1]; strain 3009 Macrolide-R [23S rRNA mutation], 4 × MIC
  single step mutation frequency: <5.9 × 10^−9
S. pneumoniae [1]; strain 3009 Macrolide-R [23S rRNA mutation], 8 × MIC
  single step mutation frequency: <5.9 × 10^−9
S. pneumoniae [1]; strain 3665 Macrolide-R [mef(A)], 2 × MIC
  single step mutation frequency: 6.8 × 10^−7
S. pneumoniae [1]; strain 3665 Macrolide-R [mef(A)], 4 × MIC
  single step mutation frequency: 1.4 × 10^−7
S. pneumoniae [1]; strain 3665 Macrolide-R [mef(A)], 8 × MIC
  single step mutation frequency: <4.5 × 10^−10
S. pneumoniae [1]; strain 7127 Macrolide-S [S20N in L4, A105V in L22], 2 × MIC
  single step mutation frequency: <2.0 × 10^−10
S. pneumoniae [1]; strain 7127 Macrolide-S [S20N in L4, A105V in L22], 4 × MIC
  single step mutation frequency: <2.0 × 10^−10
S. pneumoniae [1]; strain 7127 Macrolide-S [S20N in L4, A105V in L22], 8 × MIC
  single step mutation frequency: <2.0 × 10^−10
S. pneumoniae [2]; 24 hours
  average log10 CFU/gram of abscess: about 3 log10 CFU/gram
S. pneumoniae [2]; 48 hours
  average log10 CFU/gram of abscess: about 3 log10 CFU/gram
S. pneumoniae [2]; abscess, 10 mg/Kg QD dose
  log decrease of CFU from untreated mice: 4.2 log10
S. pneumoniae [3]; [7]
  MIC: < 30 ng/mL
S. pneumoniae [3]; S. pneumoniae (mefR), read-out: MIC
  MIC: < 30 ng/mL
U. urealyticum
  MIC Range: 4 to 63 ng/mL
U. urealyticum; Ureaplasma urealyticum
  MIC50: 8 ng/mL (≈ 9.47 nM)
  MIC90: 31 ng/mL (≈ 36.7 nM)
[4]
  Cs: 4.56 ×MIC
M. catarrhalis
  Occurrences at MIC (μg/ml) 1: 0
  Occurrences at MIC (μg/ml) 2: 0
  Occurrences at MIC (μg/ml) 4: 0
  Occurrences at MIC (μg/ml) 8: 0
  Occurrences at MIC (μg/ml) […]: 0
  Occurrences at MIC (μg/ml) ≧16: 0
M. catarrhalis; Moraxella catarrhalis
  MIC50: 120 ng/mL (≈ 142 nM)
  MIC90: 120 ng/mL (≈ 142 nM)
M. catarrhalis; Moraxella catarrhalis, read-out: Occurrences at MIC (μg/ml) 0.03
  MIC: 1 µg/mL (≈ 1180 nM)
M. catarrhalis; Moraxella catarrhalis, read-out: Occurrences at MIC (μg/ml) 0.06
  MIC: 5 µg/mL (≈ 5920 nM)
M. catarrhalis; Moraxella catarrhalis, read-out: Occurrences at MIC (μg/ml) 0.5
  MIC: 1 µg/mL (≈ 1180 nM)
M. catarrhalis; Moraxella catarrhalis, read-out: Occurrences at MIC (μg/ml) ≦0.008
  MIC: 1 µg/mL (≈ 1180 nM)
U. parvum
  MIC Range: 2 to 31 ng/mL
U. parvum; Ureaplasma parvum, read-out: MIC50
  MIC50: 8 ng/mL (≈ 9.47 nM)
U. parvum; Ureaplasma parvum, read-out: MIC90
  MIC90: 16 ng/mL (≈ 18.9 nM)
S. aureus; MRSA
  PD50: 7.5 mg/kg
S. aureus; MRSA 300 (CA)
  PD50: 9.5 mg/kg
S. aureus; S. aureus, single oral dose 1 hr post infection
  PD50: 16.3 mg/kg
S. pneumoniae [5]; S. pneumoniae 1629, QD
  Dose for 1 log10 Reduction from 24 hour controls: 6.0 mg/Kg
  Dose for 3 log10 Reduction from 24 hour controls: 8.0 mg/Kg
S. pneumoniae [5]; S. pneumoniae 6303, Q6
  1 log kill: 23.0 mg/Kg
  EC50: 16.7 mg/kg
  Static dose: 20.5 mg/kg
S. pneumoniae [5]; S. pneumoniae 6303, Q8
  1 log kill: 23.0 mg/Kg
  Emax: 5.01 log10CFU/thigh
  Static dose: 12.1 mg/kg
S. pneumoniae [5]; S. pneumoniae 6303, Q12
  1 log kill: 24.0 mg/Kg
  Static dose: 19.2 mg/kg
S. pneumoniae [5]; S. pneumoniae 6303, Q24
  Emax: 6.38 log10CFU/thigh
  Static dose: 8.2 mg/kg
S. pneumoniae [5]; S. pneumoniae 6303, QD
  Dose for 1 log10 Reduction from 24 hour controls: 1.2 mg/Kg
  Dose for 2 log10 Reduction from 24 hour controls: 3.0 mg/Kg
  Dose for 3 log10 Reduction from 24 hour controls: 5.0 mg/Kg
S. pyogenes 3029
  ED50: 2.5 mg/kg
S. pyogenes; strain 237 Macrolide-R [L4 mutation], 2 × MIC
  single step mutation frequency: <1.3 × 10^−10
S. pyogenes; strain 237 Macrolide-R [L4 mutation], 4 × MIC
  single step mutation frequency: <1.3 × 10^−10
S. pyogenes; strain 237 Macrolide-R [L4 mutation], 8 × MIC
  single step mutation frequency: <1.3 × 10^−10
S. pyogenes; strain 2011 Macrolide-R [mef(A)], 2 × MIC
  single step mutation frequency: 3.9 × 10^−8
S. pyogenes; strain 2011 Macrolide-R [mef(A)], 4 × MIC
  single step mutation frequency: <1.1 × 10^−10
S. pyogenes; strain 2011 Macrolide-R [mef(A)], 8 × MIC
  single step mutation frequency: <1.1 × 10^−10
S. pyogenes; strain 2094 Macrolide-R [erm(A)], 2 × MIC
  single step mutation frequency: 5.3 × 10^−8
S. pyogenes; strain 2094 Macrolide-R [erm(A)], 4 × MIC
  single step mutation frequency: 2.1 × 10^−9
S. pyogenes; strain 2094 Macrolide-R [erm(A)], 8 × MIC
  single step mutation frequency: <5.3 × 10^−10
S. pyogenes; strain 2132 Macrolide-S, 2 × MIC
  single step mutation frequency: <1.0 × 10^−10
S. pyogenes; strain 2132 Macrolide-S, 4 × MIC
  single step mutation frequency: <1.0 × 10^−10
S. pyogenes; strain 2132 Macrolide-S, 8 × MIC
  single step mutation frequency: <1.0 × 10^−10
S. pyogenes; strain 2368 Macrolide-R [erm(B)], 2 × MIC
  single step mutation frequency: <5.9 × 10^−11
S. pyogenes; strain 2368 Macrolide-R [erm(B)], 4 × MIC
  single step mutation frequency: <5.9 × 10^−11
S. pyogenes; strain 2368 Macrolide-R [erm(B)], 8 × MIC
  single step mutation frequency: <5.9 × 10^−11
S. pneumoniae [6]; [7]
  PD50: 6.0 mg/kg
S. pneumoniae [6]; S. pneumoniae (mefR)
  PD50: 23.2 mg/kg
S. pneumoniae [6]; S. pneumoniae serotype 19A
  PD50: 6.6 mg/kg

From US9901592B2 (priority 2008, dated 2018)
